Test system: brown cutaneous surface lipid of the rats
Assay: Testing for anti-seborrheic activity: brown discoloration (brown cutaneous surface lipid) on shaved backs of male Wistar rats after topical application
Type: in vivo
Conditions: 9 applications in 14 days; for Evaluation Method 1 (percentage of evaluators recognizing an effect): topical on one side of back fur, 6 male Wistar rats
Excerpt: The anti-seborrheic activity of aryloxobutenoic acid derivatives was examined closely in the animal experiments described hereinafter. The experimental animals were male Wistar rats weighing from 220 to 230 gm. A degree of brown discoloration on the shaved backs of the rats was established visually; the brown discoloration was caused by the brown cutaneous surface lipid of the rats. This test is based upon the observation that young female rats as well as male rats that were washed with tenside solution and a lipid solvent, respectively, as well as male rats that were treated systematically with estrogen, show only the normal light-colored pink skin after shaving; parallel to this, only relatively very small amounts of lipid can be extracted from the shorn hair.
For evaluation of anti-seborrheic activity, the test substances set forth in the table below, each in solution in ethanol, were each brushed on one side of the back fur of six rats. The other side was treated only with the solvent without the active substance (control side). During the testing period of 14 days, application of test substance was made once a day on a total of 9 days. A group of 6 rats that remained completely untreated served as an additional control. At the end of the testing, the animals were shaved on the back and the flanks and inspected visually, this inspection being done independently by an evaluation panel (6 persons) under doubleblind conditions.
Three criteria were rated. The first criterion was whether the majority of the evaluators recognized the treated side properly. The differentiations were as follows:
The second criterion was the difference between the right and left sides, one point each to be given per evaluator and animal, in the manner that the darker side was rated 1, the lighter side was rated 0, and uniformity of both sides were rated 0.5.
Significant differences between the untreated and the treated side according to the second method of evaluation indicate the topical effectiveness of a substance.
The third criterion was the rating of the difference in intensity of the brown shades according to the following scale:
According to the third method of evaluation, the differences in the point totals between the untreated control animals and the treated and untreated sides, respectively, of the experimental animal group were calculated where significant differences between control animals and the treated side of the experimental animals indicate the effect of a substance. Similarly, a distinct difference between the untreated and the treated sides of the experimental animal groups is also generally noticeable. However, this is not always as distinct as that between control animals and treated sides, which may be due to various reasons, as, for example, mechanical transfer of substance from one side to the other or solvent influence.
The differentiation of the effects according to the methods of evaluation 2 and 3 was characterized in the following manner:
In addition, the percentage of sebum reduction was calculated by dividing the point difference (ΔP) by the number of points for the control group (Pk) and multiplying by 100%, as follows: […]

[1] = Rattus norvegicus, 336 h, 0.1% in ethanol, topical, point difference (ΔP) / points of control group (Pk) x 100%, read-out: Sebum Reduction
[2] = Rattus norvegicus, 336 h, 0.5% in ethanol, topical, point difference (ΔP) / points of control group (Pk) x 100%, read-out: Sebum Reduction

Structure (SMILES) | Evaluation Method 1 (percentage of evaluators recognizing an effect) (0.1% in ethanol) | inhibition in vivo at 0.1 % [1] [%] | also measured
CCOC(=O)C=CC(=O)c1ccc(Cl)cc1 [Example 1, 4-(4'-Chloro-phenyl)-4-oxo-but-2-enoic acid ethyl ester] |  |  | Evaluation Method 1 (percentage of evaluators recognizing an effect) (0.25% in ethanol): ++ (100%); inhibition in vivo at 0.25 % (Rattus norvegicus, 336 h, 0.25% in ethanol, topical, point difference (ΔP) / points of control group (Pk) x 100%, read-out: Sebum Reduction): 84%
CCOC(=O)C=CC(=O)c1ccccc1 [Example 2, 4-Phenyl-4-oxo-but-2-enoic ethyl ester] | ++ (100%) |  | 
CC(C)OC(=O)C=CC(=O)c1ccccc1 [Example 3, 4-Phenyl-4-oxo-but-2-enoic isopropyl ester] | ++ (100%) | 68 | 
CCCCOC(=O)C=CC(=O)c1ccccc1 [Example 4, 4-Phenyl-4-oxo-but-2-enoic acid butyl ester] | ++ (100%) | 66 | 
CCOC(=O)C=CC(=O)c1ccc(OC)c(OC)c1 [Example 5, 4-(3',4'-Dimethoxy-phenyl)-4-oxo-but-2-enoic acid ethyl ester] | ++ (100%) | 65 | 
CCCCOc1ccc(C(=O)C=CC(=O)OCC)cc1 [Example 6, 4-(4'-Butoxy-phenyl)-4-oxo-but-2-enoic acid ethyl ester] |  |  | Evaluation Method 1 (percentage of evaluators recognizing an effect) (0.5% in ethanol): ++ (100%); inhibition in vivo at 0.5 % [2]: 42%
CCOC(=O)C=CC(=O)c1ccc(OC)c(OC)c1O [Example 8, 4-(3',4'-Dimethoxy-2'-hydroxy-phenyl)-4-oxo-but-2-enoic acid ethyl ester] |  |  | Evaluation Method 1 (percentage of evaluators recognizing an effect) (0.5% in ethanol): ++ (100%); inhibition in vivo at 0.5 % [2]: 69%
CCOC(=O)C=CC(=O)c1ccc(NC(C)=O)cc1 [Example 9, 4-(4'-Acetylamino-phenyl)-4-oxo-but-2-enoic acid ethyl ester] | ++ (100%) | 84 | 
CCOC(=O)C=CC(=O)c1ccc(Cl)cc1Cl [Example 10, 4-(2',4'-Dichloro-phenyl)-4-oxo-but-2-enoic acid ethyl ester] | ++ (100%) | 27 | 
